The subject of the test is ATXN3 transcripts containing exon 4 (E4E5). Kind of test: ATXN3 Quantitative Splicing Assay (qPCR, E4E5 primers/probe). Format: cell-based. Conditions: Homo sapiens; SK-N-MC cells, 24 h treatment, 30 μM to 0.6 nM; read-out: ATXN3 Potency - Splicing E4E5 IC50. As to the method: Human neuroblastoma SK-N-MC cells were plated in 384-well plates at 20,000 cells/well. Twenty-four hours after plating, cells were treated with compounds for 24 h at appropriate concentrations ranging from 30 μM to 0.6 nM (0.3% DMSO). Treated cells were lysed in 15 μL of lysis buffer, and cDNA was synthesized using the Fast Advanced Cells-to-Ct kit. Two μL of each cDNA was used in qPCR reactions to confirm the exon 4 skipped transcripts of ATXN3. A second set of primers/probe E4E5 was used to detect the transcripts containing exon 4. The third set of primers/probe E8E9 was used to detect total gene level of ATXN3. The qPCR reactions were prepared in 384-well plates in 10 μL volume, using TaqMan™ Fast Advanced Master Mix with primers and probes shown in the table below. Reactions were run in a Quant Studio 6 qPCR instrument with default settings.
The primers and probes are listed below in Table 3.
(In general: Quantitative PCR measures a nucleic acid by following its amplification.)
What is called IC50 is the concentration needed to halve the response being measured. As for `COC[C@H](N)Cc1cc2c(NCc3ccco3)nc(Cl)nn2c1Cl` [Compound 7, (R)-6-(2-amino-3-methoxypropyl)-2,7-dichloro-N-(furan-2-ylmethyl)pyrrolo[2,1-f][1,2,4]triazin-4-amine], the half-maximal inhibitory concentration (IC50) lay in the range of 101 to 500 nM.
On to `C[C@H](F)[C@H](N)Cc1cc2c(NCc3ccco3)nc(Cl)nn2c1Cl` [Compound 2, 6-((2R,3S)-2-amino-3-fluorobutyl)-2,7-dichloro-N-(furan-2-ylmethyl)pyrrolo[2,1-f][1,2,4]triazin-4-amine], for which the IC50 was in the range of 101 to 500 nM.
Take `N[C@H](Cc1cc2c(NCc3ccco3)nc(Cl)nn2c1Br)CC1CC1` [Compound 13]: the IC50 was 101 to 500 nM.
For `C[C@H](F)[C@H](N)Cc1cc2c(NCc3ccco3)nc(Cl)nn2c1Br` [Compound 1, 6-((2R,3S)-2-amino-3-fluorobutyl)-7-bromo-2-chloro-N-(furan-2-ylmethyl)pyrrolo[2,1-f][1,2,4]triazin-4-amine] the value was 0.01 to 100 nM; for `[2H]C([2H])([2H])OCC(N)Cc1cc2c(NCc3ccco3)nc(Cl)nn2c1Br` (centres unmarked) [Compound 11], 101 to 500 nM.
Turning to `N[C@H](Cc1cc2c(NCc3ccco3)nc(Cl)nn2c1Br)CC(F)(F)F` [Compound 14], the IC50 lay within 101 to 500 nM.
Regarding `C[C@H](N)Cc1cc2c(NCc3ccco3)nc(Cl)nn2c1Cl` [Compound 9], the IC50 fell in the range of 0.01 to 100 nM.
With `N[C@@H](CCOC(F)(F)F)Cc1cc2c(NCc3ccco3)nc(Cl)nn2c1Br` [Compound 15] the figure was 101 to 500 nM; with `N[C@@H](CF)Cc1cc2c(NCc3ccco3)nc(Cl)nn2c1Br` [Compound 4, (R)-6-(2-amino-3-fluoropropyl)-7-bromo-2-chloro-N-(furan-2-ylmethyl)pyrrolo[2,1-f][1,2,4]triazin-4-amine], 0.01 to 100 nM; with `N[C@H](Cc1cc2c(NCc3ccco3)nc(Cl)nn2c1Cl)CC1CC1` [Compound 17], 101 to 500 nM.
As to `N[C@@H](CCOC(F)F)Cc1cc2c(NCc3ccco3)nc(Cl)nn2c1Br` [Compound 16], the IC50 lay in the range of 0.01 to 100 nM.
With `[2H]C([2H])([2H])OC[C@H](N)Cc1cc2c(NCc3ccco3)nc(Cl)nn2c1Cl` [Compound 12] the figure was 101 to 500 nM; with `N[C@@H](COC(F)F)Cc1cc2c(NCc3ccco3)nc(Cl)nn2c1Br` [Compound 6, (R)-6-(2-amino-3-(difluoromethoxy)propyl)-7-bromo-2-chloro-N-(furan-2-ylmethyl)pyrrolo[2,1-f][1,2,4]triazin-4-amine], 101 to 500 nM.
For `COC[C@H](N)Cc1cc2c(NCc3ccco3)nc(Cl)nn2c1Br` [Compound 8] the value was 101 to 500 nM; for `N[C@@H](COC(F)F)Cc1cc2c(NCc3ccco3)nc(Cl)nn2c1Cl` [Compound 5, (R)-6-(2-amino-3-(difluoromethoxy)propyl)-2,7-dichloro-N-(furan-2-ylmethyl)pyrrolo[2,1-f][1,2,4]triazin-4-amine], 101 to 500 nM.
With `C[C@H](N)Cc1cc2c(NCc3ccco3)nc(Cl)nn2c1Br` [Compound 10] the figure was 101 to 500 nM; with `N[C@@H](CF)Cc1cc2c(NCc3ccco3)nc(Cl)nn2c1Cl` [Compound 3, (R)-6-(2-amino-3-fluoropropyl)-2,7-dichloro-N-(furan-2-ylmethyl)pyrrolo[2,1-f][1,2,4]triazin-4-amine], 0.01 to 100 nM.

The values are drawn from patent publication US20260224583A1, “COMPOSITIONS USEFUL FOR MODULATING SPLICING” (Skyhawk Therapeutics, Inc., priority 2023, published 2026).
